{"source": "patent US11918587B2", "about": "“Treatment of cancer with a RAF inhibitor” (Kinnate Biopharma Inc., priority 2021, dated 2024)", "key": {"[1]": {"test_system": "WM3629 (NRAS mutant, Class III BRAF mutant) melanoma xenograft", "assay": "WM3629 melanoma xenograft, compound 1 with binimetinib BID (Example 6)", "format": "in vivo, mouse"}, "[2]": {"test_system": "SK-MEL-2 (NRAS Q61R mutant) melanoma xenograft", "assay": "SK-MEL-2 melanoma xenograft, Compound 1 with binimetinib", "format": "in vivo, mouse"}, "[3]": {"test_system": "WM3629 (Class III BRAF mutant) melanoma xenograft", "assay": "WM3629 melanoma xenograft, Compound 1 with binimetinib QD (Example 3C)", "format": "in vivo, mouse", "conditions": "10 mg/kg QD single agent, 14 days", "text": "Mice were assigned to respective groups based on their starting tumor volume and body weight such that the average values were the same for each treatment group."}, "[4]": {"assay": "plasma exposure in SK-MEL-2 xenograft study", "conditions": "mouse, oral"}, "[5]": {"assay": "plasma exposure in WM3629 BID combination study (Example 6)", "conditions": "athymic BALB/c nude, mouse, oral, 3 mg/kg"}, "in vivo": {"assay": "in vivo", "conditions": "athymic nude, mouse, plasma, oral"}, "pERK in SK-MEL-30 cells": {"test_system": "pERK in SK-MEL-30 cells", "assay": "cells", "conditions": "Homo sapiens"}, "pERK in NCI-H2405 cells": {"test_system": "pERK in NCI-H2405 cells", "assay": "cells", "conditions": "Homo sapiens, NCI-H2405, 1 h, read-out: pERK EC50"}, "[6]": {"test_system": "A-375 (Class I BRAF V600E) melanoma xenograft", "conditions": "60 mg/kg QD; 8 of 9 animals"}, "[7]": {"test_system": "SK-MEL-2 human melanoma cells", "assay": "7-day CellTiter-Glo growth assay with binimetinib combination and synergy analysis", "format": "cell-based", "conditions": "SK-MEL-2, 168 h", "experimental": "SK-MEL-2 human melanoma cells were obtained from American Type Culture Collection and maintained in DMEM+10% FBS+1% penicillin/streptomycin. All cells were maintained in a humidified incubator at 37° C. with 5% carbon dioxide (CO2). […] Plates were removed from the incubator and equilibrated at room temperature for 15 minutes. Then, 100 μL of CellTiter-Glo (CTG) reagent was added into each well to be detected (at 1:1 to culture medium). The plates were kept at room temperature for 30 minutes followed by reading on a plate reader. […] Highest single agent (HSA), Bliss, and Loewe synergy models were assessed and utilized to find the most synergistic area score, where scores >10 indicate that the interaction between the two drugs is likely to be synergistic."}, "[8]": {"conditions": "mouse, in vivo, po", "experimental": "For routine monitoring, all study animals were monitored for not only tumor growth but also any abnormalities of behavior and appearance such as mobility, food and water consumption, body weight, eye appearance, and any other abnormal observations. Any mortality and/or abnormal clinical signs were recorded. Body weights of all animals were measured and recorded every other day throughout the study. The measurement of tumor size was conducted with calipers and recorded three times during the first week and twice weekly during the second and third weeks. The TV (mm^3) was estimated using the formula: TV=a×b^2/2, where “a” and “b” are long and short diameters of a tumor, respectively."}, "pERK in 8505C cells": {"test_system": "pERK in 8505C cells", "assay": "cells", "conditions": "Homo sapiens"}, "pERK in A-375 cells": {"test_system": "pERK in A-375 cells", "assay": "cells", "conditions": "Homo sapiens, A-375, 1 h, read-out: pERK EC50"}, "pERK in CHL-1 cells": {"test_system": "pERK in CHL-1 cells", "assay": "cells", "conditions": "Homo sapiens, CHL-1, 1 h, read-out: pERK EC50"}, "pERK in CAL-12T cells": {"test_system": "pERK in CAL-12T cells", "assay": "cells", "conditions": "Homo sapiens, 1 h, read-out: pERK EC50"}, "pERK in OV-90 cells": {"test_system": "pERK in OV-90 cells", "assay": "cells", "conditions": "Homo sapiens, OV-90, 1 h, read-out: pERK EC50"}, "[9]": {"assay": "plasma exposure in mice bearing A-375 tumors", "format": "in vivo", "conditions": "athymic nude, mouse, 15-60 mg/kg PO QD, free base, 24-hour period following the last dose, read-out: systemic plasma exposures (AUClast)"}, "pERK in IPC-298 cells": {"test_system": "pERK in IPC-298 cells", "assay": "cells", "conditions": "Homo sapiens"}, "pERK in NCI-H1666 cells": {"test_system": "pERK in NCI-H1666 cells", "assay": "cells", "conditions": "Homo sapiens"}, "pERK in NCI-H2087 cells": {"test_system": "pERK in NCI-H2087 cells", "assay": "cells", "conditions": "Homo sapiens"}, "pERK in DBTRG-05MG cells": {"test_system": "pERK in DBTRG-05MG cells", "assay": "cells", "conditions": "Homo sapiens"}, "[10]": {"assay": "plasma exposure in mice bearing BxPC-3 and WM3629 xenografts", "format": "in vivo", "conditions": "athymic nude, mouse, po, sulfate salt form, 24-hour period following the last dose, read-out: systemic plasma exposures (AUClast)"}, "pERK in SK-MEL-2 cells": {"test_system": "pERK in SK-MEL-2 cells", "assay": "cells", "conditions": "Homo sapiens"}, "pERK in SK-MEL-28 cells": {"test_system": "pERK in SK-MEL-28 cells", "assay": "cells", "conditions": "Homo sapiens"}, "pERK in Calu-6 cells": {"test_system": "pERK in Calu-6 cells", "assay": "cells", "conditions": "Homo sapiens"}, "[11]": {"conditions": "mouse, in vivo"}, "pERK in AM-38 cells": {"test_system": "pERK in AM-38 cells", "assay": "cells", "conditions": "Homo sapiens"}, "[12]": {"test_system": "NCI-H2405 (Class II BRAF mutant) NSCLC xenograft"}, "pERK in HCC1195 cells": {"test_system": "pERK in HCC1195 cells", "assay": "cells"}, "pERK in HMV-II cells": {"test_system": "pERK in HMV-II cells", "assay": "cells"}, "[13]": {"test_system": "A-375, BxPC-3, WM3629 xenografts", "conditions": "doses up to 60 mg/kg per day"}, "pERK in BxPC-3 cells": {"test_system": "pERK in BxPC-3 cells", "assay": "cells", "conditions": "Homo sapiens, BXPC-3, 1 h, read-out: pERK EC50"}, "pERK in MIA PaCa-2 cells": {"test_system": "pERK in MIA PaCa-2 cells", "assay": "cells", "conditions": "Homo sapiens, MIA PaCa-2, 1 h, read-out: pERK EC50"}, "pERK in COLO 800 cells": {"test_system": "pERK in COLO 800 cells", "assay": "cells", "conditions": "Homo sapiens"}, "pERK in Hs 294T cells": {"test_system": "pERK in Hs 294T cells", "assay": "cells", "conditions": "Homo sapiens"}, "pERK in IHH-4 cells": {"test_system": "pERK in IHH-4 cells", "assay": "cells"}, "pERK in WM3629 cells": {"test_system": "pERK in WM3629 cells", "assay": "cells", "conditions": "Homo sapiens, WM3629, 1 h, read-out: pERK EC50"}, "[14]": {"assay": "tolerability / body weight in A-375 xenograft study", "experimental": "Mean tumor volumes and body weights are plotted, respectively; error bars denote standard error of mean. Percent change in tumor volume was calculated using the following formula: (TVf−TV0)/TV0×100%; where TVf=final tumor volume (at end of treatment) and TV0=initial tumor volume (at beginning of treatment)."}, "[15]": {"conditions": "3 mg/kg BID PO 14 days monotherapy"}}, "note": "Read-outs that look alike come from different tables or passages of the source."}
{"compound": "Cn1cnc2c(F)c(Nc3ccc(Br)cc3F)c(C(=O)NOCCO)cc21", "note": "[binimetinib, reference compound]", "values": [{"measurement": "TGI", "setting": "[1]; [15]", "value": 37, "unit": "%"}, {"measurement": "ΔT/ΔC", "setting": "[1]; [15]", "value": 63, "unit": "%"}, {"measurement": "Final Tumor Volume", "setting": "[1]; 3 mg/kg BID PO 14 days monotherapy, mean ± SEM", "value": "910 ± 69", "unit": "mm^3"}, {"measurement": "tumor growth inhibition", "setting": "[2]; 3 mg/kg BID single agent, 28 days", "value": 23, "unit": "%"}, {"measurement": "inhibition of tumor growth", "setting": "[3]", "value": "did not lead to significant inhibition of tumor growth"}, {"measurement": "AUC(0-t)", "setting": "[4]; 3 mg/kg", "value": "7500 to 10100", "unit": "ng·h/mL"}, {"measurement": "AUC(0-t)", "setting": "[5]", "value": "5400 to 5730", "unit": "ng·h/mL"}, {"measurement": "AUC(0-t)", "setting": "in vivo; 10 mg/kg", "value": "11000 to 26700", "unit": "ng·h/mL"}]}
{"compound": "Cc1ccc(NC(=O)N2CC[C@@H](CC(F)(F)F)C2)cc1-c1cc(N[C@H](C)CO)nc(N2CCOCC2)c1", "note": "[Compound 1, (S)-N-(3-(2-(((R)-1-hydroxypropan-2-yl)amino)-6-morpholinopyridin-4-yl)-4-methylphenyl)-3-(2,2,2-trifluoroethyl)pyrrolidine-1-carboxamide]", "values": [{"measurement": "EC50", "setting": "pERK in SK-MEL-30 cells", "value": 95.9, "unit": "nM"}, {"measurement": "EC50", "setting": "pERK in NCI-H2405 cells", "value": 10.1, "unit": "nM"}, {"measurement": "animals exhibiting tumor regressions", "setting": "[6]", "value": 89, "unit": "%"}, {"measurement": "EC50", "setting": "[7]; read-out: Compound 1 7-Day CTG EC50, SK-MEL-2, binimetinib 0 nM (single agent, DMSO control)", "value": 164, "unit": "nM"}, {"measurement": "EC50", "setting": "[7]; read-out: Compound 1 7-Day CTG EC50, SK-MEL-2, binimetinib 2 nM", "value": 108, "unit": "nM"}, {"measurement": "EC50", "setting": "[7]; read-out: Compound 1 7-Day CTG EC50, SK-MEL-2, binimetinib 7.8 nM", "value": 106, "unit": "nM"}, {"measurement": "EC50", "setting": "[7]; read-out: Compound 1 7-Day CTG EC50, SK-MEL-2, binimetinib 31.3 nM", "value": 65, "unit": "nM"}, {"measurement": "EC50", "setting": "[7]; read-out: Compound 1 7-Day CTG EC50, SK-MEL-2, binimetinib 125 nM", "value": 39, "unit": "nM"}, {"measurement": "EC50", "setting": "[7]; read-out: Compound 1 7-Day CTG EC50, SK-MEL-2, binimetinib 500 nM", "value": 12, "unit": "nM"}, {"measurement": "tolerability", "setting": "[8]", "value": "well-tolerated"}, {"measurement": "EC50", "setting": "pERK in 8505C cells", "value": 77.1, "unit": "nM"}, {"measurement": "EC50", "setting": "pERK in A-375 cells", "value": 67.7, "unit": "nM"}, {"measurement": "EC50", "setting": "pERK in CHL-1 cells", "value": 580, "unit": "nM"}, {"measurement": "EC50", "setting": "pERK in CAL-12T cells", "value": 18.4, "unit": "nM"}, {"measurement": "ΔT/ΔC", "setting": "[1]; 1.5 mg/kg BID PO 14 days", "value": 34, "unit": "%"}, {"measurement": "ΔT/ΔC", "setting": "[1]; [15]", "value": 21, "unit": "%"}, {"measurement": "EC50", "setting": "pERK in OV-90 cells", "value": 26, "unit": "nM"}, {"measurement": "AUC(0-t)", "setting": "[9]", "value": "11900 to 156000", "unit": "ng·h/mL"}, {"measurement": "EC50", "setting": "pERK in IPC-298 cells", "value": 267, "unit": "nM"}, {"measurement": "EC50", "setting": "pERK in NCI-H1666 cells", "value": 32.9, "unit": "nM"}, {"measurement": "EC50", "setting": "pERK in NCI-H2087 cells", "value": 95.4, "unit": "nM"}, {"measurement": "EC50", "setting": "pERK in DBTRG-05MG cells", "value": 60.5, "unit": "nM"}, {"measurement": "AUC(0-t)", "setting": "[10]; dosed orally BID (1.5-10 mg/kg)", "value": "4030 to 42100", "unit": "ng·h/mL"}, {"measurement": "AUC(0-t)", "setting": "[10]; dosed orally QD (3-20 mg/kg)", "value": "5200 to 53700", "unit": "ng·h/mL"}, {"measurement": "EC50", "setting": "pERK in SK-MEL-2 cells", "value": 139, "unit": "nM"}, {"measurement": "EC50", "setting": "pERK in SK-MEL-28 cells", "value": 107, "unit": "nM"}, {"measurement": "EC50", "setting": "pERK in Calu-6 cells", "value": 200, "unit": "nM"}, {"measurement": "tolerability (on-treatment body weight changes)", "setting": "[11]", "value": "well tolerated"}, {"measurement": "average TGI", "setting": "[2]; 10 mg/kg BID 28 days", "value": 13, "unit": "%"}, {"measurement": "average TGI", "setting": "[2]; 30 mg/kg BID 28 days", "value": 135, "unit": "%"}, {"measurement": "EC50", "setting": "pERK in AM-38 cells", "value": 41.4, "unit": "nM"}, {"measurement": "ΔT/ΔC", "setting": "[12]; 10 mg/kg BID PO 21 days", "value": 15, "unit": "%"}, {"measurement": "ΔT/ΔC", "setting": "[12]; 15 mg/kg BID PO 21 days", "value": "−7", "unit": "%"}, {"measurement": "EC50", "setting": "pERK in HCC1195 cells", "value": 83.3, "unit": "nM"}, {"measurement": "EC50", "setting": "pERK in HMV-II cells", "value": 44.6, "unit": "nM"}, {"measurement": "tolerability", "setting": "[13]", "value": "well-tolerated"}, {"measurement": "AUC(0-t)", "setting": "[4]; 30 mg/kg", "value": "29900 to 96100", "unit": "ng·h/mL"}, {"measurement": "EC50", "setting": "pERK in BxPC-3 cells", "value": 50.7, "unit": "nM"}, {"measurement": "EC50", "setting": "pERK in MIA PaCa-2 cells", "value": 685, "unit": "nM"}, {"measurement": "EC50", "setting": "pERK in COLO 800 cells", "value": 99.5, "unit": "nM"}, {"measurement": "EC50", "setting": "pERK in Hs 294T cells", "value": 76.9, "unit": "nM"}, {"measurement": "AUC(0-t)", "setting": "[5]", "value": "2530 to 6750", "unit": "ng·h/mL"}, {"measurement": "AUC(0-t)", "setting": "in vivo; 30 mg/kg", "value": "31100 to 123000", "unit": "ng·h/mL"}, {"measurement": "EC50", "setting": "pERK in IHH-4 cells", "value": 53.1, "unit": "nM"}, {"measurement": "EC50", "setting": "pERK in WM3629 cells", "value": 8.8, "unit": "nM"}, {"measurement": "average weight loss", "setting": "[14]; 60 mg/kg QD", "value": 5.6, "unit": "%"}, {"measurement": "weight loss of one animal during the course of treatment", "setting": "[14]; 60 mg/kg cohort, recovered by end of study", "value": "> 10", "unit": "%"}]}
